Among the data in the supplement of paper PMC10307832 are relative viability values, retold here.

Assay in all cases: relative viability (nuclei count vs DMSO), 5 days (fraction); higher = more cells survive
Compound in experiment [1]: CC1=C(C=C(C=C1)NC(=O)C2=CC(=CC=C2)C(C)(C)C#N)NC3=CC4=C(C=C3)N=CN(C4=O)C [AZ628] + C[C@@H](Oc1cc(-c2cnn(C3CCNCC3)c2)cnc1N)c1c(Cl)ccc(F)c1Cl [Crizotinib] (partner 1 µM)
Summed up:
(§1)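 Lung cancer cell lines in 1536-well plates got either a single drug or a fixed anchor-drug dose together with five library-drug doses (not always all listed) in √10 steps, by pin tool, on the day after seeding. Nuclei were counted after 5 days, and relative viability is the treated-to-vehicle ratio of nuclei counts. Values are medians of duplicate plates.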

Compound in experiment [2]: C[As](C)SC[C@H](NC(=O)CC[C@H](N)C(=O)O)C(=O)NCC(=O)O [Darinaparsin] + CCNC(=O)c1noc(-c2cc(C(C)C)c(O)cc2O)c1-c1ccc(CN2CCOCC2)cc1 [Luminespib] (partner 0.01 µM)
Summed up:
as §1

Compound in experiment [3]: C[As](C)SC[C@H](NC(=O)CC[C@H](N)C(=O)O)C(=O)NCC(=O)O [Darinaparsin] + C[C@@H](Oc1cc(-c2cnn(C3CCNCC3)c2)cnc1N)c1c(Cl)ccc(F)c1Cl [Crizotinib] (partner 1 µM)
Summed up: as §1

Compound in experiment [4]: C[As](C)SC[C@H](NC(=O)CC[C@H](N)C(=O)O)C(=O)NCC(=O)O [Darinaparsin] + Nc1nc2[nH]cc(CCc3ccc(C(=O)N[C@@H](CCC(=O)O)C(=O)O)cc3)c2c(=O)[nH]1 [Pemetrexed] (partner 0.2 µM)
Summed up:
as §1

As to HCC-44, the relative viability turned out to be 0.801 in experiment [1] (first compound 0.08 µM); 0.857 in experiment [1] (first compound 0.253 µM); 0.961 in experiment [1] (first compound 0.8 µM); 0.912 in experiment [1] (first compound 2.53 µM); 0.721 in experiment [1] (first compound 8 µM); 1.47 in experiment [2] (first compound 0.08 µM). Moreover, the relative viability is 1.12 in experiment [2] (first compound 0.8 µM); 0.954 in experiment [2] (first compound 2.53 µM); 0.804 in experiment [2] (first compound 8 µM); 0.875 in experiment [3] (first compound 0.08 µM); 0.872 in experiment [3] (first compound 0.8 µM); 0.618 in experiment [3] (first compound 2.53 µM). Also, the relative viability turned out to be 0.929 in experiment [3] (first compound 8 µM); 0.7 in experiment [4] (first compound 0.08 µM); 0.607 in experiment [4] (first compound 0.8 µM); 0.669 in experiment [4] (first compound 2.53 µM); 0.721 in experiment [4] (first compound 8 µM).

Regarding HCC-78, the relative viability in experiment [1] (first compound 0.08 µM) was 0.404; in experiment [1] (first compound 0.253 µM), 0.403; in experiment [1] (first compound 0.8 µM), 0.38; in experiment [1] (first compound 2.53 µM), 0.413; in experiment [1] (first compound 8 µM), 0.4; in experiment [3] (first compound 0.08 µM) it was 0.36. Moreover, the relative viability in experiment [3] (first compound 0.8 µM) was 0.316; in experiment [3] (first compound 2.53 µM) it was 0.332; in experiment [3] (first compound 8 µM), 0.348; in experiment [4] (first compound 0.08 µM), 0.953; in experiment [4] (first compound 0.8 µM), 0.884; in experiment [4] (first compound 2.53 µM), 0.838. Further, the relative viability in experiment [4] (first compound 8 µM) was determined as 0.964.

For the cell line HCC-366, the relative viability in experiment [1] (first compound 0.08 µM) worked out at 0.519; in experiment [1] (first compound 0.253 µM), 0.627; in experiment [1] (first compound 0.8 µM), 0.308; in experiment [1] (first compound 2.53 µM), 0.427; in experiment [1] (first compound 8 µM), 0.236; in experiment [3] (first compound 0.08 µM), 1.26. Further, the relative viability came out at 0.523 in experiment [3] (first compound 0.8 µM); 0.265 in experiment [3] (first compound 2.53 µM); 0.828 in experiment [3] (first compound 8 µM); 0.18 in experiment [4] (first compound 0.08 µM); 0.15 in experiment [4] (first compound 2.53 µM); 0.2 in experiment [4] (first compound 8 µM).

On to HCC-827, for which the relative viability in experiment [1] (first compound 0.08 µM) amounted to 0.883; in experiment [1] (first compound 0.253 µM), 0.946; in experiment [1] (first compound 0.8 µM) it was 0.928; in experiment [1] (first compound 2.53 µM), 0.921; in experiment [1] (first compound 8 µM) it was 0.865; in experiment [2] (first compound 0.08 µM) it was 0.812. Further, the relative viability was 0.704 in experiment [2] (first compound 0.8 µM); 0.59 in experiment [2] (first compound 2.53 µM); 0.936 in experiment [2] (first compound 8 µM); 0.959 in experiment [3] (first compound 0.08 µM); 0.853 in experiment [3] (first compound 0.8 µM); 0.979 in experiment [3] (first compound 2.53 µM). The relative viability in experiment [3] (first compound 8 µM) came out at 0.965; in experiment [4] (first compound 0.08 µM) it was 0.256; in experiment [4] (first compound 0.8 µM), 0.268; in experiment [4] (first compound 2.53 µM), 0.254; in experiment [4] (first compound 8 µM), 0.263.

As to HOP-62, the relative viability in experiment [1] (first compound 0.08 µM) was determined as 1.06; in experiment [1] (first compound 0.253 µM), 0.834; in experiment [1] (first compound 0.8 µM), 0.926; in experiment [1] (first compound 2.53 µM) it was 1.16; in experiment [1] (first compound 8 µM) it was 0.412; in experiment [2] (first compound 0.08 µM), 1.1. Moreover, the relative viability in experiment [2] (first compound 0.8 µM) was 0.811; in experiment [2] (first compound 2.53 µM) it was 0.793; in experiment [2] (first compound 8 µM), 1.09; in experiment [3] (first compound 0.08 µM), 1.02; in experiment [3] (first compound 0.8 µM), 1.05; in experiment [3] (first compound 2.53 µM), 1.05. Besides, the relative viability in experiment [3] (first compound 8 µM) is 1.06; in experiment [4] (first compound 0.08 µM) it was 0.421; in experiment [4] (first compound 0.8 µM), 0.36; in experiment [4] (first compound 2.53 µM), 0.276; in experiment [4] (first compound 8 µM) it was 0.361.

Consider IA-LM, for which the relative viability in experiment [1] (first compound 0.08 µM) was found to be 0.971; in experiment [1] (first compound 0.253 µM), 0.749; in experiment [1] (first compound 0.8 µM), 0.678; in experiment [1] (first compound 2.53 µM) it was 0.829; in experiment [1] (first compound 8 µM), 0.18; in experiment [3] (first compound 0.08 µM), 1.06. For the same cell line, the relative viability is 0.645 in experiment [3] (first compound 0.8 µM), 0.788 in experiment [3] (first compound 2.53 µM) and 0.923 in experiment [3] (first compound 8 µM).

On to LC-2-ad, for which the relative viability was 0.503 in experiment [1] (first compound 0.08 µM); 0.457 in experiment [1] (first compound 0.253 µM); 0.448 in experiment [1] (first compound 0.8 µM); 0.44 in experiment [1] (first compound 2.53 µM); 0.505 in experiment [1] (first compound 8 µM); 1.11 in experiment [2] (first compound 0.08 µM). Besides, the relative viability in experiment [2] (first compound 0.8 µM) was 1.02; in experiment [2] (first compound 2.53 µM), 0.797; in experiment [2] (first compound 8 µM) it was 0.734; in experiment [3] (first compound 0.08 µM) it was 0.524; in experiment [3] (first compound 0.8 µM), 0.459; in experiment [3] (first compound 2.53 µM), 0.447. Besides, the relative viability in experiment [3] (first compound 8 µM) stood at 0.383; in experiment [4] (first compound 0.08 µM), 0.283; in experiment [4] (first compound 0.8 µM), 0.272; in experiment [4] (first compound 2.53 µM), 0.27; in experiment [4] (first compound 8 µM), 0.289.

As for LCLC-103H, the relative viability came out at 1.13 in experiment [1] (first compound 0.08 µM); 1.08 in experiment [1] (first compound 0.253 µM); 1.11 in experiment [1] (first compound 0.8 µM); 1.09 in experiment [1] (first compound 2.53 µM); 1.01 in experiment [1] (first compound 8 µM); 1.14 in experiment [2] (first compound 0.08 µM). The relative viability in experiment [2] (first compound 0.8 µM) turned out to be 0.876; in experiment [2] (first compound 2.53 µM), 0.882; in experiment [2] (first compound 8 µM), 1.22; in experiment [3] (first compound 0.08 µM), 1.12; in experiment [3] (first compound 0.8 µM), 1.04; in experiment [3] (first compound 2.53 µM), 0.979. Also, the relative viability in experiment [3] (first compound 8 µM) is 1.03; in experiment [4] (first compound 0.08 µM), 0.466; in experiment [4] (first compound 0.8 µM) it was 0.422; in experiment [4] (first compound 2.53 µM) it was 0.448; in experiment [4] (first compound 8 µM) it was 0.422.

As for LK-2, the relative viability in experiment [1] (first compound 0.08 µM) was determined as 0.192; in experiment [1] (first compound 0.253 µM), 0.197; in experiment [1] (first compound 0.8 µM), 0.244; in experiment [1] (first compound 2.53 µM) it was 0.203; in experiment [1] (first compound 8 µM) it was 0.224; in experiment [2] (first compound 0.08 µM), 0.175. For the same cell line, the relative viability turned out to be 0.173 in experiment [2] (first compound 2.53 µM); 0.174 in experiment [2] (first compound 8 µM); 0.208 in experiment [3] (first compound 0.08 µM); 0.208 in experiment [3] (first compound 2.53 µM); 0.196 in experiment [3] (first compound 8 µM); 0.24 in experiment [4] (first compound 0.08 µM). The relative viability in experiment [4] (first compound 2.53 µM) came to 0.286; in experiment [4] (first compound 8 µM), 0.329.
